Measurements taken from US20140206735A1, “HIGH DOSAGE TOPICAL METRONIDAZOLE AQUEOUS-BASED GEL FORMULATIONS AND THEIR USE TO TREAT ROSACEA” (Medicis Pharmaceutical Corporation, priority 2012, published 2014).

Experiment: Saturated MTZ solubility at 25° C. in solvents and solvent mixtures
Type: physicochemical
[1] = MTZ in Phosphate buffer, 50 mM, pH 4
[2] = MTZ in Phosphate buffer, 50 mM, pH 6

For `Cc1ncc([N+](=O)[O-])n1CCO` [MTZ, 2-(2-methyl-5-nitro-1H-imidazol-1-yl)ethanol], the “Solubility at 25° C. (n = 3, mean ± SEM)” value (MTZ in 1 wt % aq. polysorbate 60) was 9.72 ± 0.08 mg/g, the “Solubility at 25° C. (n = 3, mean ± SEM)” value (MTZ in 2 wt % aq. Benzyl alcohol) was 10.81 ± 0.040 mg/g and the “Solubility at 25° C. (n = 3, mean ± SEM)” value (MTZ in 10 wt % aq. Lutrol F127) was 9.15 ± 0.09 mg/g. For the same compound, the “Solubility at 25° C. (n = 3, mean ± SEM)” value (MTZ in 50 wt % aq. glycerol) was 7.62 ± 0.19 mg/g, the “Solubility at 25° C. (n = 3, mean ± SEM)” value (MTZ in Deionized water) was 8.70 ± 0.09 mg/g and the “Solubility at 25° C. (n = 1)” value (MTZ in Ethanol) was 19.96 mg/g. For the same compound, the “Solubility at 25° C. (n = 3, mean ± SEM)” value (MTZ in Ethanol) was 16.36 ± 0.12 mg/g, the “Solubility at 25° C. (n = 1)” value (MTZ in Ethylene glycol) was 21.34 mg/g and the “Solubility at 25° C. (n = 1)” value (MTZ in Glycerol) was 8.35 mg/g. The “Solubility at 25° C. (n = 1)” value (MTZ in PEG 400) was 24.78 mg/g, the “Solubility at 25° C. (n = 3, mean ± SEM)” value (MTZ in PEG 400) was 18.79 ± 1.23 mg/g and the “Solubility at 25° C. (n = 1)” value [1] was 9.09 mg/g. For the same compound, the “Solubility at 25° C. (n = 3, mean ± SEM)” value [1] was 8.26 ± 0.45 mg/g, the “Solubility at 25° C. (n = 1)” value (MTZ in Phosphate buffer, 50 mM, pH 5) was 9.13 mg/g and the “Solubility at 25° C. (n = 1)” value [2] was 9.10 mg/g. For the same compound, the “Solubility at 25° C. (n = 3, mean ± SEM)” value [2] was 8.57 ± 0.05 mg/g, the “Solubility at 25° C. (n = 1)” value (MTZ in Phosphate buffer, 50 mM, pH 7) was 9.07 mg/g and the “Solubility at 25° C. (n = 1)” value (MTZ in Propylene glycol) was 20.74 mg/g. The “Solubility at 25° C. (n = 3, mean ± SEM)” value (MTZ in Propylene glycol) was 18.62 ± 0.25 mg/g, the “Solubility at 25° C. (n = 1)” value (MTZ in tetraglycol) was 29.65 mg/g and the “saturated MTZ solubility at 25° C.” value (in certain alcohols (ethanol, benzyl alcohol), diols (ethylene glycol, propylene glycol), polyethers (PEG 400)) was “at least 20 mg/g”.
